Measured values as given in the supplement of paper PMC9938120.

Experiments:
Assay in all cases: drug sensitivity score (DSS3, normalised partial AUC of % inhibition dose-response) (DSS (score)); higher = more sensitive (stronger inhibition of viability); extreme values may be limits of the assay
Conditions in all cases: 72 h; library: FO5A; assay format: 2D, 384-well, CellTiter-Glo
FMOC22 = system: FMOC22 (patient-derived mucinous ovarian cancer cells)
Procedure, shortened: (§1)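 The drug sensitivity score is calculated as a partial area under the percent-inhibition dose-response curve, divided by the log of the upper asymptote; higher scores mean more sensitive. For this score, early-passage (under 10) patient-derived ovarian cancer cells were exposed on 384-well flat clear-bottom plates to compounds at five concentrations across a 10,000-fold range for 72 h at 37 °C, 5% CO2. Viability was read with CellTiter-Glo and processed in Breeze.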

FMOC17 = system: FMOC17 (patient-derived low-grade serous ovarian cancer cells)
Procedure, shortened: as §1

FMOC24 = system: FMOC24 (patient-derived high-grade serous ovarian cancer cells)
Procedure, shortened: as §1

FMOC14 = system: FMOC14 (patient-derived high-grade serous ovarian cancer cells)
Procedure, shortened: as §1

FMOC03 = system: FMOC03 (patient-derived mucinous ovarian cancer cells)
Procedure, shortened: as §1

FMOC02_3 = system: FMOC02_3 (patient-derived low-grade serous ovarian cancer cells)
Procedure, shortened: as §1

FMOC11 = system: FMOC11 (patient-derived high-grade serous ovarian cancer cells)
Procedure, shortened: as §1

FMOC28 = system: FMOC28 (patient-derived low-grade serous ovarian cancer cells)
Procedure, shortened: as §1

FMOC09 = system: FMOC09 (patient-derived high-grade serous ovarian cancer cells)
Procedure, shortened: as §1

FMOC06 = system: FMOC06 (patient-derived mucinous ovarian cancer cells)
Procedure, shortened: as §1

FMOC02_2 = system: FMOC02_2 (patient-derived low-grade serous ovarian cancer cells)
Procedure, shortened: as §1

FMOC04 = system: FMOC04 (patient-derived high-grade serous ovarian cancer cells)
Procedure, shortened: as §1

FMOC02_1 = system: FMOC02_1 (patient-derived low-grade serous ovarian cancer cells)
Procedure, shortened: as §1

FMOC25_2 = system: FMOC25_2 (patient-derived low-grade serous ovarian cancer cells)
Procedure, shortened: as §1

FMOC27 = system: FMOC27 (patient-derived low-grade serous ovarian cancer cells)
Procedure, shortened: as §1

Compound | drug sensitivity score (FMOC22) | drug sensitivity score (FMOC17) | drug sensitivity score (FMOC24) | drug sensitivity score (FMOC14) | drug sensitivity score (FMOC03) | drug sensitivity score (FMOC02_3) | drug sensitivity score (FMOC11) | drug sensitivity score (FMOC28) | drug sensitivity score (FMOC09) | drug sensitivity score (FMOC06) | drug sensitivity score (FMOC02_2) | drug sensitivity score (FMOC04) | drug sensitivity score (FMOC02_1) | drug sensitivity score (FMOC25_2) | drug sensitivity score (FMOC27)
COc1cc(N2CCC(N3CCN(C)CC3)CC2)ccc1Nc1ncc(Cl)c(Nc2ccccc2P(C)(C)=O)n1 [Brigatinib] | 0.5 | 2.9 | 2.8 | 1.7 | 0.9 | 3.7 | 1 | 4.8 | 3.8 | 4.7 | 4.3 | 1.75 | 4.4 | 6.4 | 1.7
Cc1nc2cccc(N)c2c(=O)n1C1CCC(=O)NC1=O (stereo not given) [CC122] | 0 | 0.5 | 0 | 0.2 | 0 | 0.4 | 0 | 2.5 | 0 | 0 | 0 | 0 | 0 | 0 | 0.1
COc1cc(C)[nH]c(=O)c1CNC(=O)c1c(C)n([C@H](C)C2CCOCC2)c2ccccc12 [CPI-360] | 0 | 0 | 0 | 0 | 0 | 0 | 0 | 3.4 | 0 | 0 | 0.1 | 0.05 | 0 | 0 | 0
CNC(=O)c1ccc(-c2cnc3ncc(Cc4ccc5ncccc5c4)n3n2)cc1F [Capmatinib] | 0 | 0 | 0 | 0.1 | 0 | 0 | 0 | 0 | 0 | 0 | 0 | 0 | 0 | 0 | 0.5
CC[C@@](C)(Nc1ccnc(-c2c[nH]c3ncccc23)n1)C(=O)NCC(F)(F)F [Decernotinib] | 0 | 0 | 0 | 0 | 0 | 0.4 | 0 | 0 | 0 | 2.6 | 1.7 | 0 | 3.3 | 0 | 0
CC(C)(O)CNc1nc(Nc2ccnc(C(F)(F)F)c2)nc(-c2cccc(C(F)(F)F)n2)n1 [Enasidenib] | 0 | 2.3 | 0 | 0 | 1.4 | 0 | 0 | 4.4 | 0 | 0 | 2.5 | 0 | 1.5 | 1.7 | 0
C[C@@H]1CN(C(=O)c2ccc(NC(=O)c3cc(O[C@H](C)c4c(Cl)ccc(F)c4Cl)c(N)nn3)cc2)C[C@H](C)N1 [Ensartinib] | 0.1 | 1.5 | 0.7 | 0 | 0 | 1.6 | 0.2 | 2.2 | 1.1 | 3 | 0.4 | 0.05 | 4.3 | 0.8 | 0
CN1CCN(c2ccc(C(=O)Nc3n[nH]c4ccc(Cc5cc(F)cc(F)c5)cc34)c(NC3CCOCC3)c2)CC1 [Entrectinib] | 0 | 1.9 | 0 | 0 | 0 | 2.7 | 1.1 | 2.2 | 0.3 | 1.4 | 1.5 | 0.1 | 0.3 | 2.7 | 0
COc1cc(OC)cc(N(CCNC(C)C)c2ccc3ncc(-c4cnn(C)c4)nc3c2)c1 [Erdafitinib] | 0 | 0.3 | 1.1 | 0 | 0 | 2.1 | 0.7 | 0 | 0 | 0 | 0 | 0 | 0 | 0.4 | 0
C[C@H]1CN(C2COC2)CCN1c1ccc(Nc2cc(-c3ccnc(N4CCn5c(cc6c5CC(C)(C)C6)C4=O)c3CO)cn(C)c2=O)nc1 [GDC-0853] | 0 | 0 | 0 | 0 | 0 | 0 | 0 | 0.4 | 0 | 0 | 0 | 0 | 0 | 0 | 0
O[C@H](C[C@H]1c2c(F)cccc2-c2cncn21)[C@H]1CC[C@H](O)CC1 [GDC-0919] | 0.4 | 0.8 | 0.55 | 0.8 | 0.1 | 2.1 | 1.7 | 2.2 | 0.3 | 1 | 3.6 | 0 | 0.2 | 0.1 | 2
CCc1nc(C(N)=O)c(Nc2ccc(N3CCC(N4CCN(C)CC4)CC3)c(OC)c2)nc1NC1CCOCC1 [Gilteritinib] | 0.1 | 1.7 | 0.1 | 0 | 0.1 | 4.5 | 1.9 | 0.5 | 1.7 | 4.5 | 3.2 | 1.1 | 4.2 | 4.4 | 0
COCCNCc1ccc(-c2cc3nccc(Oc4ccc(NC(=S)NC(=O)Cc5ccc(F)cc5)cc4F)c3s2)nc1 [Glesatinib] | 0 | 0 | 0.6 | 0.2 | 0 | 0 | 0 | 2.9 | 0 | 0 | 0 | 0 | 0 | 0 | 0
